Measurements taken from patent US20080171760A1, “SPIROPIPERIDINE GLYCINAMIDE DERIVATIVES” (priority 2007, published 2008).

target: T1, human V1a receptor (Homo sapiens, UniProt P37288); assay: human V1a receptor binding study (3H-Vasopressin, SPA beads); details: membranes of HEK293 cells transiently transfected with human V1a receptor, Ki calculated using the Cheng-Prussoff equation, read-out: pKi hV1a (converted)
T1 construct: expressed in transfected cells; host or cells: HEK293 cells, transiently transfected; cell membranes
T1 sequence (P37288 whole entry): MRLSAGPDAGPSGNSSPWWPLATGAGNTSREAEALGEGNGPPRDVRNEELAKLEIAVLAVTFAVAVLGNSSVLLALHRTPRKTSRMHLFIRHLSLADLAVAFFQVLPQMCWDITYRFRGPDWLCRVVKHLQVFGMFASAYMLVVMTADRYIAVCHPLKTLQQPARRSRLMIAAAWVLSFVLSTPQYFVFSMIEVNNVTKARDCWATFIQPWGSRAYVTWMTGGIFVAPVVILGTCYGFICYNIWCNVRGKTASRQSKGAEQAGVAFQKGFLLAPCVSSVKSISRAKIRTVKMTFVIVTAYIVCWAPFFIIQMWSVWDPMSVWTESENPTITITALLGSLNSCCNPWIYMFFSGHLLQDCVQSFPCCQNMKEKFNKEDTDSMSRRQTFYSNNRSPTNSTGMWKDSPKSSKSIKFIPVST
Procedure: The human V1a receptor was cloned by RT-PCR from total human liver RNA. The coding sequence was subcloned in an expression vector after sequencing to confirm the identity of the amplified sequence. […] Cell membranes were prepared from HEK293 cells transiently transfected with the expression vector and grown in 20 liter fermenters with the following protocol.
50 g of cells were resuspended in 30 ml freshly prepared ice cold Lysis buffer (50 mM HEPES, 1 mM EDTA, 10 mM MgCl2 adjusted to pH=7.4+complete cocktail of protease inhibitor (Roche Diagnostics)), homogenized with Polytron for 1 min, and sonicated on ice for 2×2 minutes at 80% intensity (Vibracell sonicator). The preparation was centrifuged 20 min at 500 g at 4° C., the pellet was discarded and the supernatant centrifuged 1 hour at 43,000 g at 4° C. (19,000 rpm). The pellet was resuspended in 12.5 ml Lysis buffer+12.5 ml Sucrose 20% and homogenized using a Polytron for 1-2 min. The protein concentration was determined by the Bradford method and aliquots are stored at −80° C. until use. For binding studies 60 mg Yttrium silicate SPA beads (Amersham) were mixed with an aliquot of membrane in binding buffer (50 mM Tris, 120 mM NaCl, 5 mM KCl, 2 mM CaCl2, 10 mM MgCl2) for 15 minutes with mixing. 50 ul of bead/membrane mixture was then added to each well of a 96 well plate, followed by 50 ul of 4 nM 3H-Vasopressin (American Radiolabeled Chemicals). For total binding measurement 100 ul of binding buffer were added to the respective wells, for non-specific binding 100 ul of 8.4 mM cold vasopressin and for compound testing 100 ul of a serial dilution of each compound in 2% DMSO. The plate was incubated 1 h at room temperature, centrifuged 1 min at 1000 g and counted on a Packard Top-Count. Non-specific binding counts were subtracted from each well and data was normalized to the maximum specific binding set at 100%. To calculate an IC 50 the curve was fitted using a non-linear regression model (XLfit) and the Ki is calculated using the Cheng-Prussoff equation.

Ki | Structure (SMILES)
23.4 nM | Cc1n[nH]c(C)c1C(NCC(=O)N1CCC2(CC1)OCc1ccccc12)c1ccccc1 (racemic) [Example 30, (RS)—N-[(3,5-Dimethyl-1H-pyrazol-4-yl)(phenyl)methyl]-2-oxo-2-(1′H,3H-spiro[2-benzofuran-1,4′-piperidin]-1′-yl)ethanamine]
18.6 nM | Cc1cccc(C(NCC(=O)N2CCC3(CC2)OCc2ccccc23)c2ccccc2)c1 (racemic) [Example 34, (RS)—N-[(3-Methylphenyl)(phenyl)methyl]-2-oxo-2-(1′H,3H-spiro[2-benzofuran-1,4′-piperidin]-1′-yl)ethanamine]
26.3 nM | CC(O)(c1ccncc1)C(NCC(=O)N1CCC2(CC1)OCc1ccccc12)c1ccc(Cl)cc1 (stereo not shown) [Example 52, 1-(4-Chlorophenyl)-1-{[2-oxo-2-(1′H,3H-spiro[2-benzofuran-1,4-piperidin]-1′-yl)ethyl]amino}-2-pyridin-4-ylpropan-2-ol]
15.8 nM | O=C(CNC(c1ccc(F)cc1)c1cccs1)N1CCC2(CC1)OCc1ccccc12 (racemic) [Example 29, (RS)—N-[(4-Fluorophenyl)(2-thienyl)methyl]-2-oxo-2-(1′H,3H-spiro[2-benzofuran-1,4′-piperidin]-1′-yl)ethanamine]
14.5 nM | O=C(CNC(c1ccccc1)c1cc(Cl)ccc1O)N1CCC2(CC1)OCc1ccccc12 (racemic) [Example 37, (RS)-4-Chloro-2-[{[2-oxo-2-(1′H,3H-spiro[2-benzofuran-1,4′-piperidin]-1′yl)ethyl]amino}(phenyl)methyl]phenol]
14.5 nM | O=C(CNC(c1ccccc1)c1ccc(Cl)c(Cl)c1)N1CCC2(CC1)OCc1ccccc12 (racemic) [Example 9, (RS)—N-[(3,4-Dichlorophenyl)(phenyl)methyl]-2-oxo-2-(1′H,3H-spiro[2-benzofuran-1,4′-piperidin]-1′-yl)ethanamine]
79.4 nM | O=C(CN[C@@H](C(=O)N1CC(O)C1)c1ccccc1)N1CCC2(CC1)OCc1ccccc12 [Example 71, 1-[(2R)-2-{[2-Oxo-2-(1′H,3H-spiro[2-benzofuran-1,4′-piperidin]-1′-yl)ethyl]amino}-2-phenylacetyl]azetidin-3-ol]
18.2 nM | O=C(CNC(c1ccccc1)c1ccccn1)N1CCC2(CC1)OCc1ccccc12 (racemic) [Example 27, (RS)-2-Oxo-N-[phenyl(pyridin-2-yl)methyl]-2-(1′H,3H-spiro[2-benzofuran-1,4′-piperidin]-1′-yl)ethanamine]
30.2 nM | O=C(CNC(c1ccccc1)c1cccc(C(F)(F)F)c1)N1CCC2(CC1)OCc1ccccc12 (racemic) [Example 12, (RS)-2-Oxo-N-{phenyl[3-(trifluoromethyl)phenyl]methyl}-2-(1′H,3H-spiro[2-benzofuran-1,4′-piperidin]-1′-yl)ethanamine]
8.51 nM | O=C(CNC(c1cccc(Cl)c1)c1ncco1)N1CCC2(CC1)OCc1ccccc12 (racemic) [Example 68, (RS)—N-[(3-Chlorophenyl) (1,3-oxazol-2-yl)methyl]-2-oxo-2-(1′H,3H-spiro [2-benzofuran-1,4′-piperidin]-1′-yl)ethanamine]
18.6 nM | C[C@](O)(c1ccccn1)[C@H](NCC(=O)N1CCC2(CC1)OCc1ccccc12)c1ccc(Cl)cc1 (racemic) [Example 49, (1RS,2RS)-1-(4-Chlorophenyl)-1-{[2-oxo-2-(1′H,3H-spiro[2-benzofuran-1,4′-piperidin]-1′-yl)ethyl]amino}-2-pyridin-2-yl-propan-2-ol]
29.5 nM | O=C(CNC(c1ccc(F)cc1)c1cccc(C(F)(F)F)c1)N1CCC2(CC1)OCc1ccccc12 (racemic) [Example 13, (RS)—N-{(4-Fluorophenyl)[3-(trifluoromethyl)phenyl]methyl}-2-oxo-2-(1′H,3H-spiro[2-benzofuran-1,4′-piperidin]-1′-yl)ethanamine]
9.12 nM | O=C(CNC(c1ccccc1)c1cccs1)N1CCC2(CC1)OCc1ccccc12 (racemic) [Example 20, (RS)-2-Oxo-N-[phenyl(2-thienyl)methyl]-2-(1′H,3H-spiro[2-benzofuran-1,4′-piperidin]-1′-yl)ethanamine]
20.4 nM | O=C(CN[C@@H](c1ccccc1)c1ccc(Cl)cc1)N1CCC2(CC1)OCc1ccccc12 (single isomer, unassigned) [Example 4, N-[(+)-(4-chlorophenyl)(phenyl)methyl]-2-oxo-2-(1′H,3H-spiro[2-benzofuran-1,4′-piperidin]-1′-yl)ethanamine]
9.12 nM | O=C(CNC(c1ccccc1)c1ccc(Cl)cc1)N1CCC2(CC1)OCc1ccccc12 (racemic) [Example 2, (RS)—N-[(4-Chlorophenyl)(phenyl)methyl]-2-oxo-2-(1′H,3H-spiro[2-benzofuran-1,4′-piperidin]-1′-yl)ethanamine]
11.7 nM | O=C(CNC(c1ccccc1)c1ccccc1)N1CCC2(CC1)OCc1ccccc12 [Example 6, N-(Diphenylmethyl)-2-oxo-2-(1′H,3H-spiro[2-benzofuran-1,4′-piperidin]-1′-yl)ethanamine]
42.7 nM | O=C1OC2(CCN(C(=O)CNC(c3ccccc3)c3ccccc3)CC2)c2ccccc21 [Example 92, 1′-[N-(Diphenylmethyl)glycyl]-3H-spiro[2-benzofuran-1,4′-piperidin]-3-one]
20.9 nM | O=C(CNC(c1ccccc1)c1ccc(C(F)(F)F)cc1)N1CCC2(CC1)OCc1ccccc12 (racemic) [Example 18, (RS)-2-Oxo-N-{phenyl[4-(trifluoromethyl)phenyl]methyl}-2-(1′H,3H-spiro[2-benzofuran-1,4′-piperidin]-1′-yl)ethanamine]
14.8 nM | O=C(CNC(c1ccccc1)c1cccc(Cl)c1)N1CCC2(CC1)OCc1ccccc12 (racemic) [Example 8, (RS)—N-[(3-Chlorophenyl)(phenyl)methyl]-2-oxo-2-(1′H,3H-spiro[2-benzofuran-1,4′-piperidin]-1′-yl)ethanamine]
28.2 nM | CN(CC(=O)N1CCC2(CC1)OCc1ccccc12)C(c1ccccc1)c1ccccc1 [Example 93, N-(Diphenylmethyl)-N-methyl-2-oxo-2-(1′H,3H-spiro[2-benzofuran-1,4′-piperidin]-1′-yl)ethanamine]
24 nM | O=C(CN[C@H](c1ccc(Cl)cc1)[C@@H](O)c1ccc(N2CCOCC2)cc1)N1CCC2(CC1)OCc1ccccc12 [Example 46]
42.7 nM | O=C(Nc1ccc(Cl)cc1)[C@H](NCC(=O)N1CCC2(CC1)OCc1ccccc12)c1ccccc1 [Example 31, (2R)—N-(4-Chlorophenyl)-2-{[2-oxo-2-(1′H,3H-spiro[2-benzofuran-1,4′-piperidin]-1′-yl)ethyl]amino}-2-phenylacetamide]
